Molecules are shown by their SMILES.

Data set [1] in a line: Chemical annealing kinetics, elastic modulus over time (Instron). It counts as physicochemical. How it is done:
In the rat intradermal study (see Example 2), MAP was annealed using 0.1 mM PETMA (Pentaerythrivol tetras(2-mercaptoacetate)), a 4-thiol containing crosslinker. The thiol groups react with the free vinyl sulfones on the microgel particles in a thiol-ene Michael addition reaction. […] The optimization of the chemical annealing was performed with formulation 1-3. […] Briefly, gels initially formulated at a volume fraction of 100% was thoroughly mixed with the crosslinkers (0.1-0.2 mM) at different pHs, which led to diluting gels to 80%. The elastic modulus was measured at different time points using Instron.
Then, the different HA-MAP formulations were annealed using the selected annealing agent at 0.2 mM at pH 7.4. […] Elastic modulus over time was measured using Instron.
The final volume fraction for annealing was 80% for all annealing conditions.

The subject of the next data set is 3T3 fibroblasts. Put plainly: In vitro cytocompatibility, WST-8 proliferation assay (Example 2). Format: cell-based, mouse. Conditions: WST-8, days 1, 3 and 6. How it is done:
Prior to animal experiments, formulations 1-3 and formulations 4-5 were tested (all in the presence and absence of annealing chemistry) for cytocompatibility using immortalized and primary cells. The WST-8 proliferation assay was used to assess cell viability and compare to positive (vehicle) and negative (cytotoxic agent) controls. The formulations used are listed in Table 5 below, along with their characteristics.
In vitro experiments were performed in well plate format. Cells were grown in culture media in adherent culture, and then exposed to either (i) hydrogel microgel particle suspensions, (ii) hydrogel microgel particle suspensions actively undergoing the annealing process, or (iii) the reaction conditions of the annealing process including soluble components but in the absence of hydrogel microgel particles. After exposure, cells were grown in adherent culture for […], measuring proliferation at 1, 3, and 6 days after exposure.
3T3 fibroblasts were grown to 90% confluent and then suspended in DMEM at 2.5×10^6 cells/mL. Then, 2 μL of cell suspension was mixed with MAP (see Table 1 for description of the different formulations tested for cytocompatibility) and added to a 96-well plate. […] Cell viability was then measured at 450 nm using WST-8 kit.

Consider `O=C(CS)OCC(COC(=O)CS)(COC(=O)CS)COC(=O)CS` [PETMA, Pentaerythritol tetrakis(2-mercaptoacetate)], for which the “time to full annealing” value in data set [1] (annealing agent with formulations 1-3 gels, pH 7.4) is ≤ 5 min. The “time before it is annealed” value in data set [1] (pH 6.5) is < 10 min. In addition, the “cytotoxic effect on cell viability” value in the data set with 3T3 fibroblasts is on record as “dose dependent cytotoxic effect”.
`CCN(CC)CC(=O)Nc1c(C)cccc1C` [lidocaine]: in data set [1] (0.3% wt, three batches of 4a, 0.2 mM PEG-dithiol 3.4 kDa, pH 7.4), the “effect on kinetic of annealing and final stiffness” value was “reduces the final stiffness after annealing and slightly slows down the reaction”.

For the origin of these results see patent US20260007802A1, “ANNEALED MICROGEL PARTICLE SYSTEMS AND METHODS” (Tempo Therapeutics, Inc., priority 2023, published 2026).
